Values after ≈ are worked out from the molar mass of the structure shown. “Also recorded” adds a separate entry of the source. Read-outs that look alike come from different tables or passages of the source. Where only a bound is given, the exact number is not on record here.

One data set has as its system HepG2 cells. In kind it is cell-based. Conditions: human, 2 day. The protocol: Three lead compounds were identified in the first round of high throughput screening (700 compounds), which had minimal inhibitory concentrations (MIC) of 0.4-0.8 μg/mL after a six day exposure to drug (NRd6) in the model of non-replication at pH 5.0, and LD50's of 100 to >100 μg/mL against HepG2 cells (a 2 day exposure).
Furthermore, LD50 values were determined using a human hepatoma cell line (HepG2) using intracellular ATP levels as a measurement that correlated with cellular viability.

Data set [1] concerns non-replicating M. tuberculosis. The experiment in a line: microbe, parasite or virus in culture. Conditions: for MIC: Mycobacterium tuberculosis. In kind it is cell-based, Mycobacterium tuberculosis.
Data set [2] concerns replicating M. tuberculosis. Briefly: MIC under replication (R) conditions. Conditions: for MIC: Mycobacterium tuberculosis. In kind it is cell-based, Mycobacterium tuberculosis.
The test system of the next data set is Streptococcus. Briefly: Antibiotic spectrum: Streptococcus. The data set is classed as cell-based. The following applies: Gram positive, replicating conditions, n=1 experiment; for MIC: Streptococcus, read-out: MIC against Streptococcus.
Data set [3] has as its system wild-type Mtb infecting murine bone marrow-derived macrophages. Briefly: Killing of Mtb infecting bone marrow-derived macrophages (FIG. 2). The following applies: 100 μg/mL. The data set is classed as cell-based, Mycobacterium tuberculosis.
Data set [4] relates to non-replicating wild-type Mycobacterium tuberculosis (Mtb). Briefly: CFU-based cidal assay, non-replicating wild-type Mtb (FIG. 1). The data set is classed as cell-based.
A further data set concerns Candida albicans. The experiment in a line: Activity against fungus Candida albicans. In kind it is cell-based. The following applies: pH 5.0. The protocol: In addition, activity was tested against the fungus Candida albicans at pH 5.0.
In another data set the test system is Pseudomonas aeruginosa. Briefly: Antibiotic spectrum: Pseudomonas aeruginosa. In kind it is cell-based. The following applies: Gram negative, replicating conditions, n=1 experiment; for MIC: Pseudomonas aeruginosa, read-out: MIC against Pseudomonas aeruginosa.
A further data set deals with Staphylococcus aureus. The experiment in a line: Antibiotic spectrum: Staphylococcus aureus. The following applies: Gram positive, replicating conditions, n=1 experiment; for MIC: Staphylococcus aureus, read-out: MIC against Staphylococcus aureus. The data set is classed as cell-based.
Data set [5] relates to murine bone marrow-derived macrophages. The experiment in a line: Toxicity to macrophages by visual inspection. Conditions: 100 μg/mL; visual inspection at 400× magnification.
The test system of another data set is Escherichia coli. Briefly: Antibiotic spectrum: Escherichia coli. Conditions: Gram negative, replicating conditions, n=1 experiment; for MIC: Escherichia coli, read-out: MIC against Escherichia coli. The data set is classed as cell-based.
[6] abbreviates: 72 h, Table 9, 3 Day Exposure to Drug, read-out: MIC NR 0.01 Inoc.
[7] abbreviates: 72 h, Table 9, 3 Day Exposure to Drug, read-out: MIC NR 0.1 Inoc.
[8] abbreviates: 72 h, pH 5, Table 2, library samples (purity approximately 75%), read-out: MIC NR pH 5.0, day 3 exposure.
[9] abbreviates: 144 h, pH 5, Table 2, library samples (purity approximately 75%), read-out: MIC NR pH 5.0, day 6 exposure.
[10] abbreviates: pH 5, read-out: MIC NR pH 5, D3 exposure.
Where [11] appears, read: pH 5, read-out: MIC NR pH 5, D6 exposure.
Setting [12] is: read-out: MIC NR at 0.01 Inoc. and 3 Day Exposure to Drug, 7 Day Outgrowth, Table 8, ranges from multiple assays.
Where [13] appears, read: read-out: MIC NR at 0.01 Inoc. and 3 Day Exposure to Drug, 11 Day Outgrowth, Table 8, ranges from multiple assays.

Take `CC1=C(C(=O)O)N2C(=O)[C@@H](NC(=O)CCc3ccccc3Cl)[C@H]2SC1` [Compound 116]: in the data set on HepG2 cells, the “HepG2 LD50” value was >100 µg/mL. For the same molecule, the MIC in data set [1] (setting [6]) is > 100 µg/mL; in data set [1] (setting [7]), > 100 µg/mL; in data set [2] (Table 9, read-out: MIC R), > 100 µg/mL.

For `CC1=C(C(=O)O)N2C(=O)[C@@H](NC(=O)CCc3ccc(F)cc3)[C@H]2SC1` [Compound 113], the “HepG2 LD50” value with HepG2 cells is >100 µg/mL. Further, the MIC in [1] (setting [6]) is > 100 µg/mL; in data set [1] (setting [7]), > 100 µg/mL; in data set [2] (Table 9, read-out: MIC R), 100 µg/mL (≈ 274 µM).

Regarding `CCCOC(=O)C1=C(C)CS[C@@H]2[C@H](NC(=O)OCc3ccccc3)C(=O)N12` [Compound 13], the “MIC against Streptococcus” value against Streptococcus is >100 µg/mL. Moreover, the MIC with Streptococcus was > 100 µg/mL; in the data set with Candida albicans, > 100 µg/mL; with Pseudomonas aeruginosa, > 100 µg/mL; with Staphylococcus aureus, > 100 µg/mL; in data set [1] (setting [8]), 6.3 µg/mL (≈ 16.1 µM); in [1] (setting [9]), < 0.39 µg/mL. Moreover, the MIC in data set [1] (setting [10]) was 1.6 µg/mL (≈ 4.1 µM); in data set [1] (setting [11]), 0.8 µg/mL (≈ 2.05 µM); in data set [1] (setting [12]), 0.2 to 0.39 µg/mL (≈ 0.512 to 0.999 µM); in [1] (setting [13]), 0.39 to 0.78 µg/mL (≈ 0.999 to 2 µM); in data set [2] (pH 6.6, Table 3, resynthesized to >95% purity, read-out: MIC pH 6.6, R cells), > 100 µg/mL; in the data set with Escherichia coli it was > 100 µg/mL. In data set [3], the “killing of wild-type Mtb infecting macrophages” value is “kills”. For the same molecule, in data set [3] (+50 ng/mL IFNγ vs −IFNγ), the “increased killing in IFNγ-activated BMDMs versus unactivated” value is given as “approximately 0.5 log10”. The “killing of intracellular Mtb, log10 reduction of CFU” value in [3] (activated macrophages, MOI 5, two independent experiments) is reported as ~1.5 log10. Further, in [4] (10 μg/mL, 7 days at 1% O2, OD580 0.01, 7H11-OADC agar), the “surviving Mtb (limit of detection)” value is < 100 colony forming units. In addition, the “effect of clavulanate on killing of non-replicating Mtb” value in [4] (NR conditions, 7 days, presence or absence of clavulanate) is reported as “clavulanate-independent; also recorded: not detected”. For the same molecule, in data set [4] (starting inoculum 0.01), the “cidality against non-replicating wild-type Mtb” value is recorded as “cidal activity; also recorded: significant cidality”. In addition, the “HepG2 Toxicity LD50” value with HepG2 cells amounted to 100 µg/mL. The molecule also registered a HepG2 toxicity in the data set on HepG2 cells of 100 µg/mL. In the data set with Pseudomonas aeruginosa, the “MIC against Pseudomonas aeruginosa” value is >100 µg/mL. The “MIC against Staphylococcus aureus” value against Staphylococcus aureus is >100 µg/mL. Moreover, the “MIC against replicating Mtb in presence or absence of clavulanic acid” value in data set [2] (with vs without clavulanic acid) is “identical”. The “toxicity to the macrophages” value in data set [5] is given as “no toxicity”. Further, the “MIC against Escherichia coli” value with Escherichia coli is >100 µg/mL.

Take `CCCCOc1ccc(CCC(=O)N[C@@H]2C(=O)N3C(C(=O)O)=C(C)CS[C@H]23)cc1` [Compound 110]: the “HepG2 LD50” value in the data set with HepG2 cells is >100 µg/mL. Moreover, the MIC was 100 µg/mL (≈ 239 µM) in data set [1] (setting [6]); > 100 µg/mL in [1] (setting [7]); 100 µg/mL (≈ 239 µM) in data set [2] (Table 9, read-out: MIC R).

As to `CC1=C(C(=O)O)N2C(=O)[C@@H](NS(=O)(=O)Cc3ccccc3)[C@H]2SC1` [Compound 112], the “HepG2 LD50” value in the data set with HepG2 cells is >100 µg/mL. For the same molecule, the MIC was > 100 µg/mL in data set [1] (setting [6]); > 100 µg/mL in data set [1] (setting [7]); > 100 µg/mL in [2] (Table 9, read-out: MIC R).

Turning to `CC1=C(C(=O)O)N2C(=O)[C@@H](NC(=O)Cc3ccc(Cl)cc3)[C@H]2SC1` [Compound 115], in the data set with HepG2 cells, the “HepG2 LD50” value is >100 µg/mL. The MIC in [1] (setting [6]) was > 100 µg/mL; in data set [1] (setting [7]) it was > 100 µg/mL; in data set [2] (Table 9, read-out: MIC R) it was 100 µg/mL (≈ 273 µM).

For `CCCN[C@@H]1C(=O)N2C(C(=O)OCCC)=C(C)CS[C@H]12` [Compound 11c, (6R,7R)-propyl 3-methyl-8-oxo-7-(propylamino)-5-thia-1-azabicyclo[4.2.0]oct-2-ene-2-carboxylate], the “MIC against Streptococcus” value in the data set on Streptococcus was >100 µg/mL. Moreover, the MIC in the data set on Streptococcus is > 100 µg/mL; in the data set on Pseudomonas aeruginosa it was > 100 µg/mL; with Staphylococcus aureus, > 100 µg/mL; in data set [1] (setting [8]), 6.3 µg/mL (≈ 21.1 µM); in [1] (setting [9]), 1.6 µg/mL (≈ 5.36 µM); in [1] (setting [10]) it was 1.6 µg/mL (≈ 5.36 µM). The MIC in data set [1] (setting [11]) was 0.4 µg/mL (≈ 1.34 µM); in data set [1] (setting [12]) it was 0.39 to 0.78 µg/mL (≈ 1.31 to 2.61 µM); in [1] (setting [13]), 0.78 µg/mL (≈ 2.61 µM); in data set [2] (pH 6.6, read-out: MIC pH 6.6, R cells), > 100 µg/mL; in the data set on Escherichia coli, > 100 µg/mL. Moreover, the “HepG2 Toxicity LD50” value with HepG2 cells was 100−>100. In the data set on HepG2 cells, the HepG2 toxicity was >100 µg/mL. For the same molecule, the “MIC against Pseudomonas aeruginosa” value in the data set on Pseudomonas aeruginosa was >100 µg/mL. In the data set on Staphylococcus aureus, the “MIC against Staphylococcus aureus” value was >100 µg/mL. For the same molecule, the “selectivity index (LD50/MIC-NRd6)” value in [1] came out at 129. The “MIC against Escherichia coli” value against Escherichia coli was >100 µg/mL.

On to `CC1=C(C(=O)O)N2C(=O)[C@@H](NC(=O)COc3ccccc3)[C@H]2SC1` [Compound 109], for which the “HepG2 LD50” value with HepG2 cells was >100 µg/mL. Further, the MIC is 100 µg/mL (≈ 287 µM) in data set [1] (setting [6]); > 100 µg/mL in [1] (setting [7]); > 100 µg/mL in data set [2] (Table 9, read-out: MIC R).

The record behind these values is patent US10059722B2, “Cephalosporin derivatives and methods of use” (priority 2012, dated 2018).
